Reference: patent publication US11413328B2, “Methods for treating inflammatory conditions of the lungs” (priority 2016, dated 2022)
Bridges are numbered along the chain shown (N, C = ends). Where no end group is shown, it is not given here.

Tests used:
[1] = tested on: IL-4, IL-5, IL-8 (KC), IL-9 and IL-13 in lung tissue homogenates; assay: Cytokine ELISA in lung tissue homogenates, HDM asthma model (Example 3); assay type: in vivo, BALB/c mice
Method: Treatment regime: Female 7-10 weeks old BALB/c mice randomly allocated into 4 study groups one day prior to study start were subcutaneously (SC) sensitized to house dust mite (100 μg HDM in 200 μL saline plus Freund's complete adjuvant in 0.9% saline). Mice were intranasally (IN) challenged with HDM on day 14 (HDM 25 μg in 50 μL of saline). hBD-2 was administered IN or orally (0.4 mg/kg TID IN; 0.4 mg/kg TID orally, 50 μL phosphate buffered saline) on day 14. The initial dose was administered 60 minutes prior to challenge, and the subsequent doses approximately 6 hours apart.
Lung tissue sampling: Lungs were removed from the thorax, snap frozen in liquid nitrogen and stored frozen at −80 degrees Celsius until analysis of cytokine concentration of IL-4, IL-5, IL-8 (KC), IL-9 and IL-13 by ELISA.
The lungs were exposed and excised by gently opening the thorax and by cutting down either side of the sternum and ribs and trimming back. Lungs from first 6 animals per group were removed from thorax, snap frozen in liquid nitrogen and stored frozen at −80° C. until analysis of cytokine concentration by ELISA.

[2] = tested on: murine house dust mite/Freunds complete adjuvant driven model of allergic asthma; assay: Total and differential cell counts in BALF, HDM asthma model (Example 2); assay type: in vivo, BALB/c mice
Method: Female 7-10 weeks old BALB/c mice were randomly allocated into 7 study groups one day prior to study start and subcutaneously (SC) sensitized to house dust mite (100 μg HDM in 200 μL saline plus Freunds complete adjuvant in 0.9% saline). Mice were then intranasally (IN) challenged with HDM on day 14 (HDM 25 μg in 50 μL of saline). […] The initial dose was administered 60 minutes prior to challenge, and the subsequent doses approximately 6 hours apart. Airway inflammation: At 48 hours post challenge, bronchoalveolar lavage was performed washing the lungs with 3 volumes of cold PBS (0.4; 0.3 and 0.3 mL, total 1 mL). Total and differential leucocyte cell counts were determined on an automated haematological analyser Sysmex XT-2000iV.

GIGDPVTCLKSGAICHPVFCPRRYKQIGTCGLPGTKCCKKP (disulfide 8-37, 15-30, 20-38 (inferred)) [hBD-2, human beta defensin 2]
IL-4 level in lung tissue homogenates ([1]; intranasal 0.4 mg/kg TID): significant effects | IL-5 level in lung tissue homogenates ([1]; intranasal 0.4 mg/kg TID): significant effects | IL-9 level in lung tissue homogenates ([1]; intranasal 0.4 mg/kg TID): significant effects | IL-4 level in lung tissue homogenates ([1]; oral 0.4 mg/kg TID): significant effects | IL-5 level in lung tissue homogenates ([1]; oral 0.4 mg/kg TID): significant effects | IL-9 level in lung tissue homogenates ([1]; oral 0.4 mg/kg TID): significant effects | neutrophil counts in BALF ([2]; intranasal 0.4 mg/kg/day TID): significantly inhibited | neutrophil counts in BALF ([2]; intranasal 1.7 mg/kg/day TID): significantly inhibited
